# No end group written: not given here.
# Tests used:
# [1] = tested on: Erwinia amylovora PMV6076; assay: In vitro growth inhibition (MIC); format: cell-based; conditions: TSB, 25°C, 48 h, OD 600 nm (Bioscreen C), three replicates, experiment repeated twice; MIC = lowest concentration with no growth, given as range
# Procedure: (§1) Peptide conjugates were tested for in vitro growth inhibition of the plant-pathogenic bacteria E. amylovora PMV6076, Xanthomonas arboricola pv. pruni CFBP5563, X. fragariae Xf349-9A, X. axonopodis pv. vesicatoria 2133-2, P. syringae pv. actinidiae Psa3700.1.1, and P. syringae pv. syringae EPS94 (Fig. 1, Table SA). The corresponding monomers (flg15, BP13, Pep13, PIP1, BP16, BP100, BP143, BP387, BP475, and KSL-W) were included for comparison.
# (§2) The following plant-pathogenic bacterial strains were used: Erwinia amylovora PMV6076 (Institut National de la Recherche Agronomique, Angers, France), Pseudomonas syringae pv. syringae EPS94 (Institut de Tecnologia Agroalimentària, University of Girona, Spain), Xanthomonas axonopodis pv. vesicatoria 2133-2, X. axonopodis pv. vesicatoria Xav206 (Xav) (D. F. Ritchie, Department of Plant Pathology, North Carolina State University), Pseudomonas syringae pv. actinidiae Psa3700.1.1, Xanthomonas fragariae Xf349-9A (Instituto Valenciano de Investigaciones Agrarias, Valencia, Spain), and Xanthomonas arboricola pv. pruni CFBP5563 (Collection Française de Bactéries Associées aux Plantes, Angers, France). All bacteria except for X. fragariae were stored in Luria Bertani (LB) broth supplemented with glycerol (20%) and maintained at −80°C. For X. fragariae, medium B ([80]) was used instead of LB. E. amylovora, X. arboricola pv. pruni, P. syringae pv. syringae, and P. syringae pv. actinidiae were scraped from the agar medium after growing for 24 h at 25°C, and X. axonopodis pv. vesicatoria and X. fragariae, after growing for 48 h at 25°C. The cell material was suspended in sterile water to obtain a suspension of 10^8 CFU mL^−1.
# (§3) Lyophilized peptides were solubilized in sterile Milli-Q water to a final concentration of 1 mM and filter-sterilized through a 0.22-μm pore filter. […] Then, 20 μL of each dilution were mixed in a microtiter plate well with 20 μL of the corresponding suspension of the bacterial indicator, 160 μL of Trypticase soy broth (TSB) (bioMérieux, France) to a total volume of 200 μL. Three replicates for each combination of strain, compound, and concentration were used. Microbial growth was determined by optical density measurement at 600 nm (Bioscreen C; Labsystem, Helsinki, Finland). Microplates were incubated at 25°C with 20 s of shaking before hourly absorbance measurement for 48 h. The experiment was repeated twice. The MIC was taken as the lowest compound concentration with no growth at the end of the experiment.
# [2] = tested on: Pseudomonas syringae pv. actinidiae Psa3700.1.1; assay: In vitro growth inhibition (MIC); format: cell-based; conditions: TSB, 25°C, 48 h, OD 600 nm (Bioscreen C), three replicates, experiment repeated twice; MIC given as range
# Procedure: as §1, §2, §3
# [3] = tested on: Pseudomonas syringae pv. syringae EPS94; assay: In vitro growth inhibition (MIC); format: cell-based; conditions: TSB, 25°C, 48 h, OD 600 nm (Bioscreen C), three replicates, experiment repeated twice; MIC given as range
# Procedure: as §1, §2, §3
# [4] = tested on: Xanthomonas arboricola pv. pruni CFBP5563; assay: In vitro growth inhibition (MIC); format: cell-based; conditions: TSB, 25°C, 48 h, OD 600 nm (Bioscreen C), three replicates, experiment repeated twice; MIC given as range
# Procedure: as §1, §2, §3
# [5] = tested on: Xanthomonas fragariae Xf349-9A; assay: In vitro growth inhibition (MIC); format: cell-based; conditions: TSB, 25°C, 48 h, OD 600 nm (Bioscreen C), three replicates, experiment repeated twice; MIC given as range
# Procedure: as §1, §2, §3
# [6] = tested on: Xanthomonas axonopodis pv. vesicatoria 2133-2; conditions: TSB, 25°C, 48 h, OD 600 nm (Bioscreen C), three replicates, experiment repeated twice; MIC given as range
# Description: The corresponding monomers (flg15, BP13, Pep13, PIP1, BP16, BP100, BP143, BP387, BP475, and KSL-W) were included for comparison.
# as §2, §3
# [7] = tested on: horse erythrocytes; conditions: TRIS buffer pH 7.2, 1 h, 37°C, absorbance 540 nm, relative to melittin 100 μM, ± confidence interval (α = 0.05)
# Procedure: The toxicity of peptide conjugates to eukaryotic cells was determined as the ability to lyse erythrocytes (Table SB).
# The hemolytic activity of the compounds was evaluated by determining hemoglobin release from erythrocyte suspensions of horse blood (5% vol/vol) (Oxoid) as previously described ([45]). Blood was centrifuged at 6000g for 5 min, washed three times with TRIS buffer (10 mM TRIS, 150 mM NaCl, pH 7.2) and diluted 10 times. Compounds were solubilized in TRIS buffer at 750, 500, 300, and 100 μM and mixed with horse erythrocytes (1:1 vol/vol). The mixture was incubated with continuous shaking for 1 h at 37°C. Then, the tubes were centrifuged at 3500g for 10 min, 80-μL aliquots of the supernatant were transferred to 100-well microplates (Bioscreen) and diluted with 80 μL water, and the absorbance measured at 540 nm (Bioscreen). […] The percentage of hemolysis (H) was calculated using the equation H = 100 × ([Op − Ob]/[Om − Ob]), where Op is the density for a given compound concentration, Ob is that for the buffer, and Om is that for the melittin positive control.
# [8] = tested on: tobacco leaves; assay: Effect of peptide infiltration on tobacco leaves (phytotoxicity); format: in vivo
# Procedure: Peptide conjugates were also assayed for their toxicity in tobacco leaves (Fig. 3, Table SC). After 48 h of infiltration, melittin caused a necrotic area of 0.70 and 2.17 cm in diameter at 50 and 250 μM, respectively. The monomers were not phytotoxic at those concentrations; all of them led to lesions of ≤1.2 cm at 250 μM. All peptide conjugates were also less phytotoxic than melittin, causing necrotic lesions between 0.26 and 1.67 cm in diameter at 250 μM. In particular, 15 of the 30 conjugates led to a necrotic area of <1 cm at this concentration. In general, sequences incorporating BP13 were among the most phytotoxic.
# Peptide conjugates were evaluated for their effect on infiltration on tobacco leaves as described previously ([41]). Peptide solutions of 50, 150, and 250 μM were infiltrated (100 μL) into the mesophylls of fully expanded tobacco leaves. Infiltrations were carried out in a single leaf, and for each peptide and dose, at least three leaves randomly distributed in different plants were inoculated. Control infiltrations with water (negative control) or melittin (positive control) at the same molar concentration were performed. The appearance of symptoms on the leaves was followed for 48 h after infiltration and measured as lesion diameter.
# [9] = HPLC retention time as indicator of relative hydrophobicity; format: physicochemical; conditions: chromatographic, Kromasil 100 C18 (4.6 mm × 40 mm, 3 μm), linear gradient 2 to 100% B over 12 min, 1 mL/min; A 0.1% aqueous TFA, B 0.1% TFA in CH3CN; used as indicator of relative hydrophobicity
# Procedure: The parameters related to the structure of the peptide conjugates (sequence, charge, hydrophobic ratio [HR], and HPLC retention time), as well as their physicochemical properties (grand average hydropathicity [GRAVY] and hydrophobic moment [<μH>]) obtained from the online programs ProtParam (Expasy server) and HeliQuest are included in Table 1.
# Peptides were analyzed under standard analytical HPLC conditions. Method A: peptides were analyzed with a Dionex liquid chromatography instrument composed of a UV/Vis Dionex UVD170U detector, a P680 Dionex pump, an ASI-100 Dionex automatic injector, and Chromeleon 6.60 software. Detection was performed at a wavelength of 220 nm. Solvent A was 0.1% aqueous trifluoroacetic acid (TFA), and solvent B was 0.1% TFA in CH3CN. Analyses were carried out with a Kromasil 100 C18 (4.6 mm × 40 mm, 3 μm) column with a linear gradient of 2 to 100% B over 7 min at a flow rate of 1 mL/min. Method B: peptides were analyzed with a 1260 Infinity II liquid chromatography instrument (Agilent Technologies) composed of a diode array detector HS, a quaternary pump VL, a 1260 vial sampler, and OpenLab CDS ChemStation software. Analyses were carried out with a Kromasil 100 C18 (4.6 mm × 40 mm, 3 μm) column with a linear gradient of 2 to 100% B over 12 min at a flow rate of 1 mL/min.
# [10] = 100 μL infiltrated into mesophyll, lesion diameter 48 h after infiltration, at least three leaves, ± confidence interval (α = 0.05)
Substance,"MIC, Ea [1] [µM]","MIC, Psa [2] [µM]","MIC, Pss [3] [µM]","MIC, Xap [4] [µM]","MIC, Xf [5] [µM]","MIC, Xav [6] [µM]",Percent hemolysis at 50 μM [7] [%],Percent hemolysis at 150 μM [7] [%],Percent hemolysis at 250 μM [7] [%],Percent hemolysis at 375 μM [7] [%],"Size of the lesions in infiltrated tobacco leaves at 50 μM [8, 10] [cm]","Size of the lesions in infiltrated tobacco leaves at 150 μM [8, 10] [cm]","Size of the lesions in infiltrated tobacco leaves at 250 μM [8, 10] [cm]","tR (min), HPLC retention time (method B) [9] [min]",Size of the lesions in infiltrated tobacco leaves at 50 μM ([8]; in vivo) [cm],Size of the lesions in infiltrated tobacco leaves at 150 μM ([8]; in vivo) [cm],Size of the lesions in infiltrated tobacco leaves at 250 μM ([8]; in vivo) [cm]
"FKLFKKILKVL-KKLfKKILKYL-NH2 [BP13-BP143, peptide conjugate, BP13 at N-terminus, BP143 at C-terminus]",> 50,> 50,> 50,6.2 to 12.5,12.5 to 25,1.6 to 3.1,100 ± 0.6,100 ± 3.7,100 ± 3.2,100 ± 10.6,0.53 ± 0.18,0.88 ± 0.15,1.07 ± 0.37,–,–,–,–
"FKLFKKILKVL-NH2 [BP13, reference compound]",25 to 50,3.1 to 6.2,12.5 to 25,6.2 to 12.5,25 to 50,50 to 100,5 ± 0.2,13 ± 2,27 ± 3,42 ± 3,0.20 ± 0.24,0.48 ± 0.15,0.96 ± 0.19,–,–,–,–
"KKLFKKILKKL-FKLFKKILKVL-NH2 [BP16-BP13, peptide conjugate, BP16 at N-terminus, BP13 at C-terminus]",> 50,25 to 50,12.5 to 25,6.2 to 12.5,12.5 to 25,1.6 to 3.1,100 ± 4.0,100 ± 2.3,100 ± 8.5,100 ± 2.1,0.68 ± 0.16,1.15 ± 0.28,1.52 ± 0.32,–,–,–,–
"KKLFKKILKYL-FKLFKKILKVL-NH2 [BP100-BP13, peptide conjugate, BP100 at N-terminus, BP13 at C-terminus]",> 50,25 to 50,> 50,12.5 to 25,6.2 to 12.5,6.2 to 12.5,100 ± 9.4,100 ± 5.5,98 ± 3.3,99 ± 3.7,0.73 ± 0.20,1.36 ± 0.23,1.46 ± 0.06,–,–,–,–
"KKLfKKILKYL-FKLFKKILKVL-NH2 [BP143-BP13, peptide conjugate, BP143 at N-terminus, BP13 at C-terminus]",> 50,25 to 50,> 50,12.5 to 25,6.2 to 12.5,6.2 to 12.5,100 ± 6.1,100 ± 3.6,100 ± 7.1,100 ± 7.0,0.18 ± 0.10,0.40 ± 0.14,1.14 ± 0.36,–,–,–,–
"RINSAKDDAAGLQIA-KKLFKKILKYL-NH2 [flg15-BP100, peptide conjugate, flg15 at N-terminus, BP100 at C-terminus]",6.2 to 12.5,–,12.5 to 25,0.8 to 1.6,6.2 to 12.5,0.8 to 1.6,48 ± 4.1,52 ± 4.3,63 ± 2.4,66 ± 9.2,0.46 ± 0.10,0.80 ± 0.22,1.02 ± 0.24,6.29,–,–,–
"VWNQPVRGFKVYE-OH [Pep13, pathogen-associated molecular pattern (PAMP) from Phytophthora sojae; plant defense elicitor monomer]",> 50,> 50,> 50,> 50,> 50,> 50,0 ± 0.6,0 ± 0.3,2 ± 0.1,0 ± 0.1,–,–,–,–,0 ± 0,0 ± 0,0 ± 0

# From PMC9238401, “Peptide Conjugates Derived from flg15, Pep13, and PIP1 That Are Active against Plant-Pathogenic Bacteria and Trigger Plant Defense Responses” (Applied and Environmental Microbiology, 2022)
